For 20 compounds, inhibition and IC50 results are on record in patent US20130252930A1 (BIOMARIN PHARMACEUTICAL INC., priority 2010, published 2013).

Molecules are shown by their SMILES.

The target in assay [1] is T1, CYP17 (human testicular microsome) (Homo sapiens, UniProt P05093).
T1 construct: using microsomal fraction from human testis (Celsis Cat #S00110) as the enzyme source; tissue Celsis S00110; host or cells: human testis microsomal fraction
T1 sequence (P05093 1-508): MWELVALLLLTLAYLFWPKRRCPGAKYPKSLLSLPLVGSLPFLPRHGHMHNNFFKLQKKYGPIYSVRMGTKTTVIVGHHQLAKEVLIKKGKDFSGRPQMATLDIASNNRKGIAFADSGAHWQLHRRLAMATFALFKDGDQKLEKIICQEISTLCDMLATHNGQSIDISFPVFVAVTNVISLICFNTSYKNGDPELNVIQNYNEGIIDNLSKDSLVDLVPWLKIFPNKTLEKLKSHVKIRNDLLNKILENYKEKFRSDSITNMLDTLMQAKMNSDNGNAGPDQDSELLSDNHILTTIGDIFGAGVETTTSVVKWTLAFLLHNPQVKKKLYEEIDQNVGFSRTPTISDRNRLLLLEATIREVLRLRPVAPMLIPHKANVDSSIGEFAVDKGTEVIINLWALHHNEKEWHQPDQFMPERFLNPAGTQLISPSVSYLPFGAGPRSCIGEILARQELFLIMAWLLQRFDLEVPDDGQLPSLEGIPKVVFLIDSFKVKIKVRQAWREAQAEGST
Briefly: CYP17 enzymatic assay (% inhibition at 1 nM) (Biological Example 12). It is filed as biochemical. Conditions: compound at 1 nM, read-out: Biological Example No. 12: CYP17 enzymatic assay % inhibition at 1 nM.
Protocol: The assays were performed in 96-well plates. Typical assays were carried out in total 100 μL volume that included test compounds at 1 nM concentration, 1× reaction buffer, 0.5 mM NADPH, 1 μM 17α-hydroxypregnenolone, and 2.5 μL of human testicular microsome (Celsis. Cat #S00110). Reaction without test compound served as a positive control. Reactions were allowed to incubate at 37° C. for 90 min with gentle shaking. The reaction was stopped by directly applying the enzymatic reaction mixture to ELISA plate for evaluation of DHEA concentration according to manufacturer's protocol (IBL America). A standard curve (OD450 vs. DHEA concentration) was generated using purified DHEA. […] Percent inhibition (inhibition %) of the compound was calculated using normalized DHEA concentration based on following formula: 100−([DHEA] of compound/[DHEA] of positive control*100).

The target of assay [2] is T2, Cyp21 enzyme (Human HEK 293-Cyp21 stable transfected cells) (Homo sapiens, UniProt P08686).
T2 construct: expressed in transfected cells
T2 sequence (P08686 1-495): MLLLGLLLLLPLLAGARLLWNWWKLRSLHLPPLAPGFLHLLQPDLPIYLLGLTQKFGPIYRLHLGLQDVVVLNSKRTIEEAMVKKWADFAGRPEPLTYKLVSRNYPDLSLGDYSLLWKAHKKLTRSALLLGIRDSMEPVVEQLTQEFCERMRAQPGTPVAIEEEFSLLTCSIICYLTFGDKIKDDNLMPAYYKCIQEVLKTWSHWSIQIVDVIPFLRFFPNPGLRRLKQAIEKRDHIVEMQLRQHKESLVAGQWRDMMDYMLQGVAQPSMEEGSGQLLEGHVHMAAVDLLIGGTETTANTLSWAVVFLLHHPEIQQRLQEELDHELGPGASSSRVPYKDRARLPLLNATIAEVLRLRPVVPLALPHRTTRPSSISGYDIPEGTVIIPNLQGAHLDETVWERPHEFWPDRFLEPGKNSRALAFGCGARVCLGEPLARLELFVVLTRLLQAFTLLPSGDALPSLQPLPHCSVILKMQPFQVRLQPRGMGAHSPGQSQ
Nature of the assay: CYP21-HEK293 enzymatic assay (IC50) (Biological Example 11). It is filed as cell-based. The conditions noted are these: HEK 293-Cyp21 cells; read-out: Biological Example No. 11: CYP21-HEK293 enzymatic assay IC50.

A word on the inhibition: it is the drop in the measured response relative to a control, in per cent. As usually defined, the IC50 is the concentration that inhibits the measured activity by half. Consider `CCC1CC2C(CC[C@]3(C)C(c4cncc(C(F)F)c4)=CCC23)[C@@]2(C)CCC(=O)C=C12` (stereo partly drawn) [Compound 334, (10R,13S)-17-(5-(difluoromethyl)pyridin-3-yl)-6-ethyl-10,13-dimethyl-6,7,8,9,10,11,12,13,14,15-decahydro-1H-cyclopenta[a]phenanthren-3(2H)-one], for which, in assay [1], the inhibition at 0.001 µM is below 10%. For the same compound, in assay [2], the IC50 was above 1000 nM.
With `C[C@]12CCC(=O)C=C1C(n1ccnn1)CC1C2CC[C@]2(C)C(c3cccnc3)=CCC12` (stereo partly drawn) [Compound 335, (10R,13S)-10,13-dimethyl-17-(pyridin-3-yl)-6-(1H-1,2,3-triazol-1-yl)-6,7,8,9,10,11,12,13,14,15-decahydro-1H-cyclopenta[a]phenanthren-3(2H)-one], the inhibition at 0.001 µM in assay [1] fell in the range of 10 to 50%. Besides, the IC50 in assay [2] was above 1000 nM.
For `C[C@]12CCC(=O)C=C1C(n1nccn1)CC1C2CC[C@]2(C)C(c3cccnc3)=CCC12` (stereo partly drawn) [Compound 336, (10R,13S)-10,13-dimethyl-17-(pyridin-3-yl)-6-(2H-1,2,3-triazol-2-yl)-6,7,8,9,10,11,12,13,14,15-decahydro-1H-cyclopenta[a]phenanthren-3(2H)-one], in that order: below 10% and above 1000 nM.
In the case of `C[C@]12CCC(=O)C=C1C(c1ccccc1)CC1C2CC[C@]2(C)C(c3cncc(F)c3)=CCC12` (stereo partly drawn) [Compound 337, (10R,13S)-17-(5-fluoropyridin-3-yl)-10,13-dimethyl-6-phenyl-6,7,8,9,10,11,12,13,14,15-decahydro-1H-cyclopenta[a]phenanthren-3(2H)-one], in assay [1], the inhibition at 0.001 µM was below 10%. For the same compound, the IC50 in assay [2] was above 1000 nM.
Consider `C[C@]12CCC(=O)C=C1C(c1ccccc1)CC1C2CC[C@]2(C)C(c3cccnc3)=CCC12` (stereo partly drawn) [Compound 338, (10R,13S)-10,13-dimethyl-6-phenyl-17-(pyridin-3-yl)-6,7,8,9,10,11,12,13,14,15-decahydro-1H-cyclopenta[a]phenanthren-3(2H)-one], for which the inhibition at 0.001 µM in assay [1] is below 10%. For the same compound, in assay [2], the IC50 is above 1000 nM.
For `C[C@]12CCC(=O)C=C1C(C1CC1)C[C@@H]1[C@@H]2CC[C@]2(C)C(c3cccnc3)=CC[C@@H]12` (stereo partly drawn) [Compound 339, (10R,13S)-6-cyclopropyl-10,13-dimethyl-17-(pyridin-3-yl)-6,7,8,9,10,11,12,13,14,15-decahydro-1H-cyclopenta[a]phenanthren-3(2H)-one] the same measures were below 10% and above 1000 nM.
For the compound `CC1CC2C(CC[C@]3(C)C(c4cncc(C(F)F)c4)=CCC23)[C@@]2(C)CCC(=O)C=C12` (stereo partly drawn) [Compound 341, (10R,13S)-17-(5-(difluoromethyl)pyridin-3-yl)-6,10,13-trimethyl-6,7,8,9,10,11,12,13,14,15-decahydro-1H-cyclopenta[a]phenanthren-3(2H)-one], the inhibition at 0.001 µM in assay [1] is 10 to 50%. Moreover, the IC50 in assay [2] is above 1000 nM.
For `C[C@]12CC[C@H]3[C@@H](CC(C4CC4)C4=CC(=O)CC[C@@]43C)C1=CC=C2c1cccnc1` (stereo partly drawn) [Compound 343, (10R,13S)-6-cyclopropyl-10,13-dimethyl-17-(pyridin-3-yl)-6,7,8,9,10,11,12,13-octahydro-1H-cyclopenta[a]phenanthren-3(2H)-one] the same measures were 10 to 50% and above 100 nM.
For `C[C@]12CC[C@H]3[C@@H](CC(c4ccccc4)C4=CC(=O)CC[C@@]43C)C1=CC=C2c1cccnc1` (stereo partly drawn) [Compound 344, (10R,13S)-10,13-dimethyl-6-phenyl-17-(pyridin-3-yl)-6,7,8,9,10,11,12,13-octahydro-1H-cyclopenta[a]phenanthren-3(2H)-one], in that order: 10 to 50% and above 1000 nM.
For `CC1C[C@@H]2[C@H](CC[C@]3(C)C(c4cncc(C(F)F)c4)=CC[C@@H]23)[C@@]2(C)C=CC(=O)C=C12` (stereo partly drawn) [Compound 346, (10R,13S)-17-(5-(difluoromethyl)pyridin-3-yl)-6,10,13-trimethyl-6,7,8,9,10,11,12,13,14,15-decahydro-3H-cyclopenta[a]phenanthren-3-one] the same measures were 10 to 50% and above 1000 nM.
For the compound `C[C@]12CCC3C(CCC4=CC(=O)CC[C@@]43C)C1=CC=C2c1ccc(F)nc1` (stereo partly drawn) [Compound 355, (10R,13S)-17-(6-fluoropyridin-3-yl)-10,13-dimethyl-6,7,8,9,10,11,12,13-octahydro-1H-cyclopenta[a]phenanthren-3(2H)-one], the inhibition at 0.001 µM in assay [1] is 10 to 50%. In addition, the IC50 in assay [2] was above 1000 nM.
In the case of `Cc1cnc(F)c(C2=CCC3C4CCC5=CC(=O)CC[C@]5(C)C4CC[C@]23C)c1` (stereo partly drawn) [Compound 356, (10R,13S)-17-(2-fluoro-5-methylpyridin-3-yl)-10,13-dimethyl-6,7,8,9,10,11,12,13,14,15-decahydro-1H-cyclopenta[a]phenanthren-3(2H)-one], the inhibition at 0.001 µM in assay [1] lay within 10 to 50%. In addition, the IC50 in assay [2] is above 1000 nM.
In the case of `C[C@]12CCC3C(CCC4=CC(=O)CC[C@@]43C)C1=CC=C2c1cncc(Cl)c1` (stereo partly drawn) [Compound 359, (10R,13S)-17-(5-chloropyridin-3-yl)-10,13-dimethyl-6,7,8,9,10,11,12,13-octahydro-1H-cyclopenta[a]phenanthren-3(2H)-one], the inhibition at 0.001 µM in assay [1] fell in the range of 10 to 50%. Further, in assay [2], the IC50 was above 1000 nM.
As to `C[C@]12CCC(=NO)C=C1C1(CC1)C[C@@H]1[C@@H]2CC[C@]2(C)C(c3cccnc3)=CC[C@@H]12` [Compound 362, (6cR,8aS)-10,13-dimethyl-17-(pyridin-3-yl)-1,7,8,9,10,11,12,13,14,15-decahydrospiro[cyclopenta[a]phenanthrene-6,1′-cyclopropan]-3(2H)-one oxime], the inhibition at 0.001 µM in assay [1] lay within 10 to 50%. Further, the IC50 in assay [2] was above 100 nM.
For `CC1(C)C2=CCC3C(CC[C@]4(C)C(c5cccnc5)=CCC34)[C@@]2(C)CC/C1=N\O` (stereo partly drawn) [Compound 363, (10R,13S,E)-4,4,10,13-tetramethyl-17-(pyridin-3-yl)-4,7,8,9,10,11,12,13,14,15-decahydro-1H-cyclopenta[a]phenanthren-3(2H)-one oxime] the same measures were below 10% and above 1000 nM.
For `C[C@]12C=CC(=NO)C=C1C1(CC1)C[C@@H]1[C@@H]2CC[C@]2(C)C(c3cccnc3)=CC[C@@H]12` [Compound 365, (6cR,8aS)-10,13-dimethyl-17-(pyridin-3-yl)-7,8,9,11,12,13,14,15-octahydrospiro[cyclopenta[a]phenanthrene-6,1′-cyclopropan]-3(10H)-one oxime] the same measures were 10 to 50% and above 100 nM.
For `C[C@]12CCC(=NO)C=C1C(F)CC1C2CC[C@]2(C)C(c3cccnc3)=CCC12` (stereo partly drawn) [Compound 366, (10R,13S)-6-fluoro-10,13-dimethyl-17-(pyridin-3-yl)-6,7,8,9,10,11,12,13,14,15-decahydro-1H-cyclopenta[a]phenanthren-3(2H)-one oxime], in that order: 10 to 50% and above 1000 nM.
Consider `CC1CC2C(CC[C@]3(C)C(c4cccnc4)=CCC23)[C@@]2(C)C=CC(=NO)C=C12` (stereo partly drawn) [Compound 367, (10R,13S)-6,10,13-trimethyl-17-(pyridin-3-yl)-6,7,8,9,10,11,12,13,14,15-decahydro-3H-cyclopenta[a]phenanthren-3-one oxime], for which the inhibition at 0.001 µM in assay [1] fell in the range of 10 to 50%. Further, the IC50 in assay [2] is above 1000 nM.
As for `CC1CC2C3=CC=C(c4ccc(F)nc4)[C@@]3(C)CCC2[C@@]2(C)CCNC(=O)C=C12` (stereo partly drawn) [Compound 385, (5aR,7aS)-8-(6-fluoropyridin-3-yl)-5a,7a,12-trimethyl-3,4,5,5a,5b,6,7,7a,11,12-decahydrocyclopenta[5,6]naphtho[1,2-d]azepin-2(10bH)-one], the inhibition at 0.001 µM in assay [1] is 10 to 50%. Besides, the IC50 in assay [2] was above 1000 nM.
For `C[C@]12CCC3C(CCC45CC4NC(=O)CC[C@]35C)C1CC=C2c1cccnc1` (stereo partly drawn) [Compound 387, (5aR,7aS)-5a,7a-dimethyl-8-(pyridin-3-yl)-1a,2,4,5,5a,5b,6,7,7a,10,10a,10b,11,12-tetradecahydrocyclopenta[5,6]naphtho[2,1-c]cyclopropa[b]azepin-3(1H)-one], in that order: below 10% and above 1000 nM.
